Assay results: US12661355B2, “Compounds and methods for inducing UCP1 expression” (The Regents of the University of California, priority 2020, dated 2026)
“Also recorded” adds a separate entry of the source.

Legend:
AKAP13 = target: T1, AKAP13 (Rattus norvegicus, UniProt F1M3G7); assay: DARTS in H9c2 cell extracts, AKAP13; assay type: binding; settings: 20 μM, 1 h
T1 construct: DARTS assay in H9c2 cell extracts treated with vehicle or 20 μM Z160 for 1 h; endogenous in cells; host or cells: rat H9c2 cells
T1 sequence (F1M3G7 whole entry): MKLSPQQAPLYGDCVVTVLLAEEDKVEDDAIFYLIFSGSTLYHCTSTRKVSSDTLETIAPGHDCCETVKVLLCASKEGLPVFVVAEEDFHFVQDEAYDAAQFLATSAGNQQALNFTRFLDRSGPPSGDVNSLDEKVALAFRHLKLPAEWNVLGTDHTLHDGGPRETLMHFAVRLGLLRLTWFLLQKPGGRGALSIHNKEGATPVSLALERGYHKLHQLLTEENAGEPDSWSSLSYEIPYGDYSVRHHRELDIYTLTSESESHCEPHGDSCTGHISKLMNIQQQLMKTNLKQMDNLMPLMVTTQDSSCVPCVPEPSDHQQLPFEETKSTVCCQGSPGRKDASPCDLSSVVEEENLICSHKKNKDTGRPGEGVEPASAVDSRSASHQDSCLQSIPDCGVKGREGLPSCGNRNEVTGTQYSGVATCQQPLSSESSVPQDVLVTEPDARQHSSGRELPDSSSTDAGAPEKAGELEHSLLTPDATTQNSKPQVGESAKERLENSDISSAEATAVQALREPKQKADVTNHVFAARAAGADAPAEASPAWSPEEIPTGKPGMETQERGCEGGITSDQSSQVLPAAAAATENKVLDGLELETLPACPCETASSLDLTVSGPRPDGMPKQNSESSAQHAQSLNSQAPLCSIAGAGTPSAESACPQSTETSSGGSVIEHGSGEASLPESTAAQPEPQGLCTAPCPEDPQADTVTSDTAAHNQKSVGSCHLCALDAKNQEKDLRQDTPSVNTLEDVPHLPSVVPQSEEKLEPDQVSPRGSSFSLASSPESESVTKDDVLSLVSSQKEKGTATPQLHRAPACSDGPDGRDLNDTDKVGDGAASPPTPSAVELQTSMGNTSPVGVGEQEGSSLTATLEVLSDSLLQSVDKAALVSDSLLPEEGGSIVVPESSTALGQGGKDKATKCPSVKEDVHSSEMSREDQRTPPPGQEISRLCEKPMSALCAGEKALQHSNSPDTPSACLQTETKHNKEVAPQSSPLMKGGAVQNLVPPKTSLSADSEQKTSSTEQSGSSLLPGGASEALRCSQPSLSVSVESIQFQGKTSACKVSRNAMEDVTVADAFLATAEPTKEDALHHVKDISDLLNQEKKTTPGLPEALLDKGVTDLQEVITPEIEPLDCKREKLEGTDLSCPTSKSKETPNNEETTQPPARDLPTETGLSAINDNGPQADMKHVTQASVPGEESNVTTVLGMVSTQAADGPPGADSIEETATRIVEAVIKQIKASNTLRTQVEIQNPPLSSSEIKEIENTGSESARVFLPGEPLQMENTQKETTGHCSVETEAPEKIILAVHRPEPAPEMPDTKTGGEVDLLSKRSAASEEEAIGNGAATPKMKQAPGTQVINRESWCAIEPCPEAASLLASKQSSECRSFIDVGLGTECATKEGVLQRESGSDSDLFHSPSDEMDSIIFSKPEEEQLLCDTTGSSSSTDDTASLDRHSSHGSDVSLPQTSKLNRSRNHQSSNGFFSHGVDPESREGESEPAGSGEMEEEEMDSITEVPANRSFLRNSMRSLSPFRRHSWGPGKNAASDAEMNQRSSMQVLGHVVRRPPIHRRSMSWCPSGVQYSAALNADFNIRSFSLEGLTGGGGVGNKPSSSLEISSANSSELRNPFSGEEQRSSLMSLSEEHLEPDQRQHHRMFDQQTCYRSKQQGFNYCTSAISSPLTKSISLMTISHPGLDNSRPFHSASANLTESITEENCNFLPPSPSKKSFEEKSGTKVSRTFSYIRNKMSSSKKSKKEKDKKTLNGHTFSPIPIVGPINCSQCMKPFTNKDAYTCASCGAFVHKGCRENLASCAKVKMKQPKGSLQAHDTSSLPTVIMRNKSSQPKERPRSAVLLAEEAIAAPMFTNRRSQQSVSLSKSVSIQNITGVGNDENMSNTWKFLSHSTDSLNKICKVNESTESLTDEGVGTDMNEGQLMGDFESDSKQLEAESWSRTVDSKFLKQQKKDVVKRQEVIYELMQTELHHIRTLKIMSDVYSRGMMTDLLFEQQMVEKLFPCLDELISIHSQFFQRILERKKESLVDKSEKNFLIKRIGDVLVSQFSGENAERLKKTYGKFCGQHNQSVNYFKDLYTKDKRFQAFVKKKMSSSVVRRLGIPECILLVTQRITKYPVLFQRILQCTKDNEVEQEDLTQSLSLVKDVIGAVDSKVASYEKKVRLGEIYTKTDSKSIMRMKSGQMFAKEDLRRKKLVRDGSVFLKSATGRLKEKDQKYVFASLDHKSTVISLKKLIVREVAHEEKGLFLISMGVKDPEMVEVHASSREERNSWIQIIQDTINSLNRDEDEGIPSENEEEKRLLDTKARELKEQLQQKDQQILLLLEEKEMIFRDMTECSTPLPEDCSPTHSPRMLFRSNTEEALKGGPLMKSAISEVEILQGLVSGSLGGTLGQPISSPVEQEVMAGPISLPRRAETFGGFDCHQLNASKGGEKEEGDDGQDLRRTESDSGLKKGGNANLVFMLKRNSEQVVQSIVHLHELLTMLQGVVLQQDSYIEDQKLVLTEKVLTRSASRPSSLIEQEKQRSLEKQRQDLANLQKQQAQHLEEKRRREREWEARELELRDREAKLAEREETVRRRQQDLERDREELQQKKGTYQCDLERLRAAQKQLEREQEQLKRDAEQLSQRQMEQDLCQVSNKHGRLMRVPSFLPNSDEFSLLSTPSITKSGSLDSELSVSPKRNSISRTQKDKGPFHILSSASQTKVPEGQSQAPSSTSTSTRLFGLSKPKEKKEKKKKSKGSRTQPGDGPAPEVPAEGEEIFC
Description: (§1) Rat H9c2 cells were grown in DMEM supplemented with 10% FBS, 25 mM glucose, 1 mM pyruvate, and 2 mM glutamine Neonatal rat ventricular myocytes (NRVM) were isolated and cultured as previously described. Briefly, 2-4 day old rats were sacrificed and myocytes and fibroblasts were isolated and separated using a Percoll density gradient. Following isolation, NRVMs were plated on gelatin-coated plates in DMEM containing 10% FBS, 25 mM glucose, 1 mM pyruvate, and 2 mM glutamine The next day, FBS was replaced by 1× insulin-transferrin-selenium supplement and the cells were treated with vehicle or 10 μM Z160 for 2 days, with or without 60 μM isoproterenol or 50 μM phenylephrine.
[…] assays were performed according to known methods. Briefly, BAT or cells within a 10 cm dish were lysed with 600 μl M-PER buffer containing protease and phosphatase inhibitors. Debris was pelleted by centrifugation at 18,000 g for 10 min at 4° C., and the lysates were harvested and supplemented with TNC buffer (50 mM Tris-HCl, 50 mM NaCl, 10 mM CaCl2). The lysates were split into two tubes and treated with either vehicle or 20 μM Z160 for 1 h at room temperature. For experiment with BAT, 100 μg of lysate was incubated with different Z160 concentrations. […]

PKA subunits = assay: Western blot of mitochondria-associated proteins, PKA subunits; assay type: cell-based, mouse; settings: brown adipocytes, 10 μM, after 6-8 h
Description: Cells and tissues were lysed in 10 mM Tris pH 7.5, 10 mM NaCl, 1 mM EDTA and 0.5% Triton X-100, supplemented with complete mini EDTA-free protease (Roche Diagnostics) and phosphatase (Cocktail 2 and 3, Sigma) inhibitors, followed by 10 second sonication. For analysis of mitochondrial proteins, mitochondria were isolated from cells by dual centrifugation, as described. Protein lysates were separated by SDS-PAGE and transferred to a nitrocellulose membrane. Transfer was confirmed by Ponceau staining (P7170, Sigma). After blocking in 5% milk, 0.1% Tween-20 in Tris-buffered saline (TBS), primary antibody was incubated overnight at 4° C. in 5% bovine serum albumin and 0.1% Tween-20 in TBS. Primary antibodies against ACTB (GTX109639, GeneTex), AKAP1 (5203, Cell Signaling), AKAP6 (07-087, Millipore), Cytochrome c (136F3, Cell Signaling), electron transport chain protein complexes (Total OXPHOS rodent WB antibody cocktail ab110413, Abcam), GAPDH (GTX100118, Genetex), active p38 MAPK (V1211, Promega), total p38 MAPK (8690, Cell Signaling), PGC1α (AB3242, Millipore), phospho-(Ser/Thr) PKA substrate (9621, Cell Signaling), PKA C-α (4782, Cell Signaling), PKA RII-β (ab75993, Abcam), and UCP1 (662045, Calbiochem) were used at 1:2000. […] Quantification using representative bands from the Ponceau staining was performed with ImageJ. […]

AKAP6 = target: T2, AKAP6 (Mus musculus, UniProt E9Q9K8); assay: CETSA in brown adipocytes, AKAP6; assay type: binding; settings: 10 μM for 8 h
T2 construct: endogenous in cells; host or cells: immortalized mouse brown adipocytes
T2 sequence (E9Q9K8 1-2307): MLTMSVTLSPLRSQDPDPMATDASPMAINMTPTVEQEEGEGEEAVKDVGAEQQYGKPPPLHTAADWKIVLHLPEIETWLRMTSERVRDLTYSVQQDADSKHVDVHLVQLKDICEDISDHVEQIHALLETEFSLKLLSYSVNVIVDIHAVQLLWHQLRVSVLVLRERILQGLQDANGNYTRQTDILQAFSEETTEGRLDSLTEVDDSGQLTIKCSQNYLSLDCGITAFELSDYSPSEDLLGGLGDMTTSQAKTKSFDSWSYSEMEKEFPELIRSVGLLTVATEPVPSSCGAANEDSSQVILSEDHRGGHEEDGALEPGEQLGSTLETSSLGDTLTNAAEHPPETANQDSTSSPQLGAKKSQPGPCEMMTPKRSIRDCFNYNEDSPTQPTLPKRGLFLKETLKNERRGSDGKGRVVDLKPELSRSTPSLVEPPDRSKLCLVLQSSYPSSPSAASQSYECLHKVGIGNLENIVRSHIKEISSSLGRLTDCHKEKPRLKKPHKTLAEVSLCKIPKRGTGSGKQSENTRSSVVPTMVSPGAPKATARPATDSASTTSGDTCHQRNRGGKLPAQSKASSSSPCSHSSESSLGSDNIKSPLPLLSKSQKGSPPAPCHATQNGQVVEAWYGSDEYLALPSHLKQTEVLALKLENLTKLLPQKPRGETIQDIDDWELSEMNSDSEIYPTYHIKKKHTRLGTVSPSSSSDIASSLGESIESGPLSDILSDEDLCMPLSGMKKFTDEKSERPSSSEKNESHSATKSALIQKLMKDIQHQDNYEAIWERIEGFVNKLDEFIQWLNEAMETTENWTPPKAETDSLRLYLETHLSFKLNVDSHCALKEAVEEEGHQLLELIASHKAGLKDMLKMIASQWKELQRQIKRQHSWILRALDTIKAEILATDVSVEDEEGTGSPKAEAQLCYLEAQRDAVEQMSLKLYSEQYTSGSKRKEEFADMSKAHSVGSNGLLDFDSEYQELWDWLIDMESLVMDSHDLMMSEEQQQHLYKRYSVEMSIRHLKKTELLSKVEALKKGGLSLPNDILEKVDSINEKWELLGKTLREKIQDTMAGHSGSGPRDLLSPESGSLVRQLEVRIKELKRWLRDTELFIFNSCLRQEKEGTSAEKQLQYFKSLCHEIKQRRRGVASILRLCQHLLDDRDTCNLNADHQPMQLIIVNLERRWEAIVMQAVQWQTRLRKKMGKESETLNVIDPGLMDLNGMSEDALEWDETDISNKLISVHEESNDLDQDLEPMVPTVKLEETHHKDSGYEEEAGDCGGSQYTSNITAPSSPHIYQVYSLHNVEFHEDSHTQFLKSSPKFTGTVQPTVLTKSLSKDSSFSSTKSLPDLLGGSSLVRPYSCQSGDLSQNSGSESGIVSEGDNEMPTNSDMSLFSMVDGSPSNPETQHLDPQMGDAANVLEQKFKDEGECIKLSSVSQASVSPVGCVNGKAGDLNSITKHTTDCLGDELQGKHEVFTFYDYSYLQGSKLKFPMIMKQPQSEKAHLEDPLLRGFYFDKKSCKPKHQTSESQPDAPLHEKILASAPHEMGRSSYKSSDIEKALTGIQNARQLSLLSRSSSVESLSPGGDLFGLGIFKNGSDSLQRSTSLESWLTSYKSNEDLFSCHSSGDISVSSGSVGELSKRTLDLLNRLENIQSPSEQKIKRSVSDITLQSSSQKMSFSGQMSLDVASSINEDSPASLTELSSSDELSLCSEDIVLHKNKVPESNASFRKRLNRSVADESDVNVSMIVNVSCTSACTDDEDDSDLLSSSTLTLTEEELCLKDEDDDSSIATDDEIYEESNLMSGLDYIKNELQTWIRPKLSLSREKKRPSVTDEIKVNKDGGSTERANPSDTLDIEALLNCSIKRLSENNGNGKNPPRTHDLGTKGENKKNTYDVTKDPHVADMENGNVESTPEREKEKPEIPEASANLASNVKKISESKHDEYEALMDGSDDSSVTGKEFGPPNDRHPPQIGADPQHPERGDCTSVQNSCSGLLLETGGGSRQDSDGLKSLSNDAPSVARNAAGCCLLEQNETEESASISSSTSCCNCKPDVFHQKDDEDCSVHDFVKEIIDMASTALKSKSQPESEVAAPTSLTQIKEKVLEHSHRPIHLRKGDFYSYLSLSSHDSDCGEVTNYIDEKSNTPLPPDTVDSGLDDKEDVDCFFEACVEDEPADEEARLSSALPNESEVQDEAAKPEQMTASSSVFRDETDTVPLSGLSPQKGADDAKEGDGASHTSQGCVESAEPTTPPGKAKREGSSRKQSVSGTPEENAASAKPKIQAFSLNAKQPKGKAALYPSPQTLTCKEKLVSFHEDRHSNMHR
Description: CETSA assays were performed according to known methods. Briefly, differentiated brown adipocytes (one 10 cm dish per treatment) were treated with vehicle or compounds, trypsinized, counted, and re-suspended in approximately 450 μl PBS containing protease inhibitors (volumes were adjusted to have the same number of cells in each treatment). For each sample, 18 μl was distributed into each of 7 PCR tubes. Samples were heated using a thermocycler with a temperature gradient (iCycler, Biorad) for 3 min, followed by 3 min at room temperature, and then snap-frozen in liquid N2. After two freeze-thaw cycles, samples were centrifuged at 20,000 g for 15 min at 4° C., and the supernatants were transferred to another set of tubes. Proteins were analyzed by immunoblotting.
The potential interaction of Z160 with PKA subunits and AKAPs was assessed first by identifying which PKA subunits and AKAP isoforms are normally present in BAT. […] To perform the CETSA assays, cultured brown adipocytes were incubated with 10 μM Z160 for 8 h, after which the thermal shift was analyzed by Western blot.

NRVM = assay: Hypertrophic gene expression in neonatal rat ventricular myocytes; assay type: cell-based; settings: 10 μM Z160 concomitantly with 60 μM isoproterenol or 50 μM phenylephrine, 2 days
Description: as §1
RNA levels were measured by qPCR according to known methods. Briefly, RNA was extracted with TRIzol (Invitrogen) and reverse transcribed with iScript (Bio-Rad). Real-time PCR analysis was performed with a CFX Connect (Bio-Rad).

## COc1ccc(NC(=O)CSc2nc3ccccc3c(=O)[nH]2)c(OC)c1 [Z160]
AKAP13
  pronase susceptibility of AKAP13: altered pronase susceptibility; also recorded: change of AKAP13 conformation
PKA subunits
  mitochondrial association of PKA subunits: increased mitochondrial association
AKAP6
  heat stability of AKAP6: did not influence the heat stability
NRVM
  effect on hypertrophic gene expression profile (Nppa, Nppb, Pln) induced by isoproterenol or phenylephrine: prevented the induction of a hypertrophic gene expression profile; also recorded: reverses the effect of ISO and PE
